Results reported in paper PMC8635421, “Illumination of serotonin transporter mechanism and role of the allosteric site” (Science Advances, 2021).

Columns and labels:
[1] = target: T1, SERT (Homo sapiens, UniProt P31645); assay: Uptake of 3H-labeled N-indole methyl derivative in HEK-293S GnTI- cells transduced with ΔN72/C13 SERT; assay type: cell-based; conditions: 3H-labeled compound, fig. S3H
T1 construct: N- and C-terminally truncated but otherwise wild-type (ΔN72, ΔC13); GFP (C); Strep tag (purification tag); made in house; host or cells: HEK-293S GnTI- cells, baculovirus-mediated transduction
T1 sequence (P31645 73-617 limits assumed): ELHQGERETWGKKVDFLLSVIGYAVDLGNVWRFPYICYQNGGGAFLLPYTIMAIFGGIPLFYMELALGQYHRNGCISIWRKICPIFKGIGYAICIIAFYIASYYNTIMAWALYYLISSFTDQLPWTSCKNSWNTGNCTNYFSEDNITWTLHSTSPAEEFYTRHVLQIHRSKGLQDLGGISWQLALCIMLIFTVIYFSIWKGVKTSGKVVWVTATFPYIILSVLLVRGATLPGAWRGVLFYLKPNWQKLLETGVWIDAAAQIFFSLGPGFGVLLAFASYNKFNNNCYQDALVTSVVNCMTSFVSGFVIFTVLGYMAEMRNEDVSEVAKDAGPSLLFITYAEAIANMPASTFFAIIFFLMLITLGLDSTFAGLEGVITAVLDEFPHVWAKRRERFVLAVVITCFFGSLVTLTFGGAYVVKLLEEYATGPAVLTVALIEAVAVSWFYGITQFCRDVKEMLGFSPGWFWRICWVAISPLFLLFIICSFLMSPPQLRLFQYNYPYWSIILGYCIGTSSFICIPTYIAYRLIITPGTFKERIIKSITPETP
Method: To measure the uptake of the N-indole methyl derivative, 1 × 10^5 HEK-293S GnTI^− cells were transduced with viruses for ΔN72/C13 SERT. The cells were plated into 96-well plates coated with poly-D-lysine. After 24 hours, cells were washed with uptake buffer [25 mM Hepes-tris (pH 7), 130 mM NaCl, 5.4 mM KCl, 1.2 mM CaCl2, 1.2 mM MgSO4, 1 mM ascorbic acid, and 5 mM glucose]. The custom-synthesized [^3H]3-(2-aminoethyl)-1-methyl-1H-indol-5-ol hydrochloride isotope was diluted 1:1000 with unlabeled ligand, and a final concentration 0.78 to 100 μM was added to the cells. Uptake was stopped at 5 min by rapidly washing cells three times with 100 μl of uptake buffer, solubilizing with 20 μl of 1% Triton-X100, followed by addition of 200 μl of scintillation fluid to each well. A final concentration of 100 μM S-citalopram was added to the cells to estimate nonspecific counts. The amount of labeled 3-(2-aminoethyl)-1-methyl-1H-indol-5-ol hydrochloride was measured by counting in a standard 96-well plate using a MicroBeta scintillation counter.

[2] = target: T2, SERT allosteric site (Homo sapiens, UniProt P31645, I291A/T439S); assay: [3H]VLZ competition binding (SPA) in the presence of imipramine, allosteric site; conditions: 800 nM [3H]VLZ and 800 nM imipramine, NaCl; read-out: Ki, competition with [3H]VLZ (affinity for the allosteric site)
T2 construct: GFP (C); Strep tag (purification tag); made in house; host or cells: HEK-293S GnTI- cells, baculovirus-mediated transduction
T2 sequence (P31645 whole entry I291A/T439S): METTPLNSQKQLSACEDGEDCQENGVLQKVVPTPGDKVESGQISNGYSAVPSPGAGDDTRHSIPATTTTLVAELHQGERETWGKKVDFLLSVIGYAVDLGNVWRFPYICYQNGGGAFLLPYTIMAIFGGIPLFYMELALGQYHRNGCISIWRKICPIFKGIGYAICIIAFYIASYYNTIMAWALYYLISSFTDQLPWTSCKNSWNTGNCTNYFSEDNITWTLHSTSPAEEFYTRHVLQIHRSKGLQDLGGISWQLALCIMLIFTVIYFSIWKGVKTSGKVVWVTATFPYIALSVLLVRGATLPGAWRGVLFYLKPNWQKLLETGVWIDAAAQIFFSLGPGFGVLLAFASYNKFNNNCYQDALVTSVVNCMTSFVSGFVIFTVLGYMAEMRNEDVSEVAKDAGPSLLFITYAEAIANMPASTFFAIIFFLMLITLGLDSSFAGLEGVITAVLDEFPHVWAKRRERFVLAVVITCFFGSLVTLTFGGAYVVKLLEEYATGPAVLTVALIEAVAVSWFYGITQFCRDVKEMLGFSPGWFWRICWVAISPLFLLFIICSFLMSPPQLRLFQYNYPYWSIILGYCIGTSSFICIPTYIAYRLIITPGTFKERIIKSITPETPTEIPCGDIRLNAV
Method: (§1) All the competition-binding experiments were performed using scintillation proximity assays (SPAs) ([58]) with Cu-YSi beads (1 mg ml^−1) in SPA buffer containing 20 mM tris-HCl (pH 8), 100 mM NaCl, or 100 mM KCl. […] For the [^3H]paroxetine experiments, 1 nM SERT was used along with 0.3 μM to 10 mM of the cold competitors and 20 nM [^3H]paroxetine. […] Experiments were measured in triplicate. The error bars for each data point represent the SEM Ki values and were determined with the Cheng-Prusoff equation ([59]) in GraphPad Prism.

[3] = target: T1, SERT; assay: biochemical; assay type: binding; conditions: competition with [3H]paroxetine, SERT in nanodiscs, 100 mM NaCl, 20 nM [3H]paroxetine, n = 3 technical replicates
Method: as §1

SMILES | substrate for SERT (uptake) [1] | Ki [2] | Ki [3]
Cl.Cn1cc(CCN)c2cc(O)ccc21 [3-(2-aminoethyl)-1-methyl-1H-indol-5-ol hydrochloride] | robust substrate | 24.9 ± 5.4 µM | 5.4 ± 1 µM
CNCCc1c[nH]c2ccc(OC)cc12 [5-methoxy-N-methyltryptamine] |  |  | 3.9 ± 0.9 µM
CNCCc1c[nH]c2ccc(O)cc12 [N-ω-methyl-5-hydroxytryptamine] |  |  | 2.8 ± 0.9 µM
